Measurements published in US11965091B2, “Biocide free associative thickener” (Rohm and Haas Company, priority 2019, dated 2024).
Counter-ions that a name gives are not always drawn.

Tested on: standard pool of bacteria, yeasts, and molds
Assay: Microbial challenge test
Assay type: cell-based
Conditions: for microbial challenge test (by acid): HEURs treated with the named acid
Description: Compositions within and outside the scope of the present invention were tested for microbial growth susceptibility using a series of microbial challenge tests.
Samples were inoculated 2 times at 7-d intervals with 10^6-10^7 colony forming units per milliliter of sample (CFU/mL) of a standard pool of bacteria, yeasts, and molds obtained from American Type Culture Collection (ATCC) that are common contaminants in coatings. Once inoculated, the samples were stored in 25° C. incubators. Test samples were monitored for microbial contamination by agar plating using a standard streak plate method. Samples were plated 1 and 7 day after each microbial challenge onto trypticase soy agar (TSA) and potato dextrose agar (PDA) plates. All agar plates were checked daily up to 7 d after plating to determine the number of microorganisms surviving in the test samples. When not being checked, the agar plates were stored in incubators, 30° C. for TSA plates and 25° C. for PDA plates. The extent of microbial contamination was established by counting the colonies, where the rating score was determined from the number of microbial colonies observed on the agar plates. Reported results come from day 7 readings. Table 1 illustrates the rating system used to estimate the level of microbial contamination on streak plates. Colonies refers to the number of colonies on the plate.

O=S(=O)(O)O [Example H2SO4, sulfuric acid]
microbial challenge test (by acid): passed

Cl [HCl, hydrochloric acid]
microbial challenge test (by acid): passed

O=P(O)(O)CN(CP(=O)(O)O)CP(=O)(O)O [NTMTPA, nitrilotris(methylene)triphosphonic acid]
microbial challenge test (by acid): passed

O=P(O)(O)O [phosphoric acid]
microbial challenge test (by acid): passed | microbial challenge test at a pH of 2.8 (pH of 2.8): not optimal | microbial challenge test at a pH of 3.3 (pH of 3.3): failed
